# In patent US12076308B2, “Terpene control in scaleable cannabinoid medicinal formulations” (priority 2015, dated 2024):
# Where two headings read alike, the source gives them in different places.
# Assays:
# pancreatic cancer = settings: cited from earlier work; for tumor volume over time: mice, repeated injections, compared with control group curve CRTL; for effect on pancreatic cancer cells/tumors in mice: reported by Donadelli, high dosages of CB1 ligand
# [1] = War veterans with PTSD given cannabinoid infused chocolates; assay type: in vivo, human; settings: THC alone
# Method: In a separate set of observations and tests, war veterans suffering from post-traumatic stress disorder (PTSD) were observed purchasing large amounts of un-tested hashish from local dispensaries on sale days. After observing this, samples of this hashish were tested. […] Veterans suffering from PTSD received cannabinoid infused chocolates with controlled dosages. This process identified that chocolates infused with 44 mg of THC and 4 mg of CBD were effective in treating these veterans PTSD. Information reported by veterans identified that many of them were also suffering from pain and had been consuming opiates to combat the pain. The opiates that these veterans were taking reportedly exacerbated PTSD symptoms. […] Patients of Laguna Honda Hospital in California were also provided medications that included both THC and CBD and reported benefit.
Structure (SMILES),tumor volume over time (pancreatic cancer),effect on pancreatic cancer cells/tumors in mice (pancreatic cancer),effect on pancreatic cancer cells/tumors in mice (pancreatic cancer; listed as Rimonabant),"benefit when treating pain combined with PTSD, versus combined THC/CBD medication [1]",psychotic side effects associated with PTSD [1]
Nc1ccn([C@@H]2O[C@H](CO)[C@@H](O)C2(F)F)c(=O)n1 [Gemcitabine],grew at even a slower rate,,,,
"Cc1c(C(=O)NN2CCCCC2)nn(-c2ccc(Cl)cc2Cl)c1-c1ccc(Cl)cc1 [SR1, Rimonabant]",grew at a slower rate,reducing pancreatic cancer tumors,shrunk pancreatic cancer cells,,
"CCCCCc1cc(O)c2c(c1)OC(C)(C)[C@@H]1CCC(C)=C[C@@H]21 [THC, tetrahydrocannabinol]",,,,either not effective or provided limited benefits,increased psychotic side effects
